In patent publication US7202023B2 (priority 2000, dated 2007):
In brackets after ≈: the same amount, converted by molar mass.

What was measured:
[1] = system: panBCD operon (panB promoter); test: RNA (transcriptional) profiling of panB, panC, panD mRNA levels in treated bacterial cells; assay type: cell-based, B. subtilis; details: LB medium, 37° C.
[2] = system: B. subtilis reporter strain PY79(amy::PpanB::lacZ, cat); test: Minimum inhibitory concentration (MIC) in 96-well microtiter plate, OD600 after about 18 hours; assay type: cell-based; details: Bacillus subtilis
Procedure: The minimum inhibitory concentrations (MIC) for trimethoprim and sulfamethoxazole were determined for each of the reporter strains. To determine the MIC, a compound of interest (e.g., trimethoprim or sulfamethoxazole) was placed in a 96-well microtiter plate such that the concentration of the compound varies in various wells of the plate (e.g., by using a series of 2-fold dilutions of the compound). Approximately 5,000 cells from a logarithmically-growing culture (e.g., the B. subtilis strain PY79) in Luria broth were added to each well (e.g., in a volume of 50–80 μl). The plate then was incubated at 37° C. for approximately 18 hours. The OD600 was then read to measure cell growth in each well of the plate. The lowest concentration of the compound that leads to complete killing of the culture (i.e., the concentration of compound for which the OD600 nm is equal to a control well that contains only media and the test compound) is deemed the MIC for the particular compound and bacterial strain.

PABA uptake = details: 14C-PABA, Herrington (1994) Anal Biochem 216:427–430; cited from earlier work
[3] = 10 μg/ml trimethoprim, 90 minutes

SMILES	panD mRNA levels induced ([1]; 0.5 mg/ml sulfamethoxazole, 80 minutes) [fold]	MIC [2] [µg/mL]	PABA uptake (PABA uptake)	panB mRNA levels induced [1, 3] [fold]	panC mRNA levels induced [1, 3] [fold]	panD mRNA levels induced [1, 3] [fold]
Cc1cc(NS(=O)(=O)c2ccc(N)cc2)no1 [sulfamethoxazole]	148	500 (≈ 1970 µM)	–	–	–	–
Nc1ccc(S(=O)(=O)Nc2nccs2)cc1 [sulfathiazole]	–	–	inhibited	–	–	–
COc1cc(Cc2cnc(N)nc2N)cc(OC)c1OC [trimethoprim]	–	3 (≈ 10.3 µM)	inhibited	10	54	38
